Values quoted from earlier work as cited in patent US20160331866A1, “TISSUE REGENERATION MEMBRANE FOR REPAIR AND REGENERATION OF PERIPHERAL NERVE” (NATIONAL CHENG KUNG UNIVERSITY, priority 2015, published 2016).

conditions: conventionally oral dose form

concentration of the active ingredient in the blood | SMILES
160 µM | COc1ccc2c(c1)c(CC(=O)O)c(C)n2C(=O)c1ccc(Cl)cc1 [Indomethacin]
20 ng/mL | CC(C)(O)c1ccccc1CC[C@@H](SCC1(CC(=O)O)CC1)c1cccc(/C=C/c2ccc3ccc(Cl)cc3n2)c1 [Montelukast]
8.46 to 25.38 µM | CC(c1cc2ccccc2s1)N(O)C(N)=O (stereo not shown) [Zileuton]
832 to 1660 µM | CC(=O)Oc1ccccc1C(=O)O [aspirin, acetylsalicylic acid]
